Source: ChEMBL document CHEMBL1134827, “Design and synthesis of novel 2,3-dihydro-1H-isoindoles with high affinity and selectivity for the dopamine D3 receptor” (Bioorg Med Chem Lett, 2001)

How the values were obtained:
D(2) dopamine receptor = D(2) dopamine receptor (Homo sapiens, UniProt P14416); experiment: Displacement of [125I]iodosulpiride from human Dopamine receptor D2 expressed in CHO cells; type: cell-based
[1] = target: T1, 5-hydroxytryptamine receptor 2C (Homo sapiens, UniProt P28335); experiment: Evaluated for the binding affinity to 5-hydroxytryptamine 2C receptor
T1 sequence (P28335 whole entry): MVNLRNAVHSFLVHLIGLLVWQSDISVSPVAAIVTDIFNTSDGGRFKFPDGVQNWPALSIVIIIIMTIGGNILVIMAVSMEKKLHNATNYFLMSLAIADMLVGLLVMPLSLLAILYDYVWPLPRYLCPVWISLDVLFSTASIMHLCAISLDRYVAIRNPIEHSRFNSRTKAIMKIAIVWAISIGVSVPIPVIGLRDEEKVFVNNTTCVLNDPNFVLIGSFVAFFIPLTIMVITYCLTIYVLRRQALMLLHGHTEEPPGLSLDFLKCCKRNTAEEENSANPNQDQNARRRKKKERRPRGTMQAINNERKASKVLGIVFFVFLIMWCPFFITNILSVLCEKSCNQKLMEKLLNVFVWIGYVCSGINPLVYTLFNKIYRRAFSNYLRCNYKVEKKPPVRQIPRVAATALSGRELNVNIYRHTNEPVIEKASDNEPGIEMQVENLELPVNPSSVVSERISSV

[2] = target: D(3) dopamine receptor (Rattus norvegicus) (UniProt P19020); experiment: Antagonistic activity at D3 receptor using in vitro functional assay
[3] = target: 5-hydroxytryptamine receptor 1B (Homo sapiens, UniProt P28222); experiment: Evaluated for the binding affinity to 5-hydroxytryptamine 1B receptor
[4] = Evaluated for the low clearance in rat (in vivo); type: ADME, organism-based; details: blood, read-out: CLb
D(3) dopamine receptor = D(3) dopamine receptor (Homo sapiens, UniProt P35462); experiment: Displacement of [125I]iodosulpiride from human Dopamine receptor D3 expressed in CHO cells; type: cell-based
[5] = target: 5-hydroxytryptamine receptor 2A (Homo sapiens, UniProt P28223); experiment: Evaluated for the binding affinity towards 5-hydroxytryptamine 2A receptor
[6] = Evaluated for the bioavailability in rat (in vivo); type: ADME, organism-based
[7] = target: T2, Alpha-1B adrenergic receptor (Homo sapiens, UniProt P35368); experiment: Evaluated for the binding affinity to alpha 1B receptor
T2 sequence (P35368 whole entry): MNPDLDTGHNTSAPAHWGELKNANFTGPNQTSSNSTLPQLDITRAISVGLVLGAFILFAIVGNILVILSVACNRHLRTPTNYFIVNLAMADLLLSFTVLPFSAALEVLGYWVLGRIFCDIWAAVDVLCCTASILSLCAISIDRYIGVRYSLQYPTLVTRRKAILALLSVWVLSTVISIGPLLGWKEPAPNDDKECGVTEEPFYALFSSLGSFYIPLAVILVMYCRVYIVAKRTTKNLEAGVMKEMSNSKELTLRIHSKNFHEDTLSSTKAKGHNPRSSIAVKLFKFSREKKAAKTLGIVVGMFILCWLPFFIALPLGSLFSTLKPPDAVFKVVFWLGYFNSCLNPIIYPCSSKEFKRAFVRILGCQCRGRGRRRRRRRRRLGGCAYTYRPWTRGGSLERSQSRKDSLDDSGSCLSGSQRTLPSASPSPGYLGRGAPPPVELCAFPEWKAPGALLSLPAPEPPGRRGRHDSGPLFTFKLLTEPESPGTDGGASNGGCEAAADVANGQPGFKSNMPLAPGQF

[8] = target: 5-hydroxytryptamine receptor 2B (Homo sapiens, UniProt P41595); experiment: Evaluated for the binding affinity to 5-HT 2B receptor
[9] = target: 5-hydroxytryptamine receptor 6 (Homo sapiens, UniProt P50406); experiment: Evaluated for the binding affinity towards 5-hydroxytryptamine 6 receptor
[10] = target: T3, 5-hydroxytryptamine receptor 1A (Homo sapiens, UniProt P08908); experiment: Evaluated for the binding affinity to 5-hydroxytryptamine 1A receptor
T3 sequence (P08908 whole entry): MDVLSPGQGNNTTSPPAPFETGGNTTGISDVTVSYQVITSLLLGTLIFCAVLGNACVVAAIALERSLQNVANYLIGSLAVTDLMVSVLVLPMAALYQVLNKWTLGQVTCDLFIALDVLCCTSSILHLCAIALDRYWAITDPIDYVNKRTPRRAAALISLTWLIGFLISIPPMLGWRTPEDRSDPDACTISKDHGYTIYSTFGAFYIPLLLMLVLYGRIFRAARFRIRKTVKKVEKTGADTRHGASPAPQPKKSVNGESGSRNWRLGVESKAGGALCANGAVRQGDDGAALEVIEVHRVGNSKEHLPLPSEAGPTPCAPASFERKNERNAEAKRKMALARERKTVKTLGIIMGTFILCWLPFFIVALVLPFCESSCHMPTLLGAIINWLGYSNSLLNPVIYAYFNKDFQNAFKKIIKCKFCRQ

[11] = Evaluated for the half life in rat (in vivo); type: ADME, organism-based
[12] = target: 5-hydroxytryptamine receptor 1D (Homo sapiens, UniProt P28221); experiment: Evaluated for the binding affinity against 5-hydroxytryptamine 1D receptor
[13] = target: 5-hydroxytryptamine receptor 7 (Homo sapiens, UniProt P34969); experiment: Evaluated for the binding affinity to 5-hydroxytryptamine 7 receptor
Sequence of 5-hydroxytryptamine receptor 7 (P34969 whole entry): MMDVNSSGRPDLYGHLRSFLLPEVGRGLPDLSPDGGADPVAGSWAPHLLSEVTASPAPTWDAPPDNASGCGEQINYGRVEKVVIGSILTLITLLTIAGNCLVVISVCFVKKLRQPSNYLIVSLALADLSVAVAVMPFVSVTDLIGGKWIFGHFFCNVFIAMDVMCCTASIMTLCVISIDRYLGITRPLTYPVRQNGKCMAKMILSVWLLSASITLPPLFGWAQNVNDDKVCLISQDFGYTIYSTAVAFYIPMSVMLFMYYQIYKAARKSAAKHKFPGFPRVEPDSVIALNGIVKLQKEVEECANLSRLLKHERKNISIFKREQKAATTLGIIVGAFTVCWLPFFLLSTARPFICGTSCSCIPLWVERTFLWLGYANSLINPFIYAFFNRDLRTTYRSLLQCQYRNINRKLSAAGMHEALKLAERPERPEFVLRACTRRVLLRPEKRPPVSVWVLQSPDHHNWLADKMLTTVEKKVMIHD

Sequence of D(3) dopamine receptor (P35462 whole entry): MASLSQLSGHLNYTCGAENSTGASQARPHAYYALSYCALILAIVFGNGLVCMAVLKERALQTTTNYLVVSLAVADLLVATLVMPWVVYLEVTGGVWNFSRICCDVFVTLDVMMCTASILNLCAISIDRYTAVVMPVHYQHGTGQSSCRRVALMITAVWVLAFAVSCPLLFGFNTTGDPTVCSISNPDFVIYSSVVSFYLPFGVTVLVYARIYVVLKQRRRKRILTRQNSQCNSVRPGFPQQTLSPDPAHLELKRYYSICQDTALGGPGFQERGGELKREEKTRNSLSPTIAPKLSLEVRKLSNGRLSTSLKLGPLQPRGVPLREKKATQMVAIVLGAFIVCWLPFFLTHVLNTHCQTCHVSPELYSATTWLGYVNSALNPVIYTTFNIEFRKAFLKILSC
Sequence of D(2) dopamine receptor (P14416 whole entry): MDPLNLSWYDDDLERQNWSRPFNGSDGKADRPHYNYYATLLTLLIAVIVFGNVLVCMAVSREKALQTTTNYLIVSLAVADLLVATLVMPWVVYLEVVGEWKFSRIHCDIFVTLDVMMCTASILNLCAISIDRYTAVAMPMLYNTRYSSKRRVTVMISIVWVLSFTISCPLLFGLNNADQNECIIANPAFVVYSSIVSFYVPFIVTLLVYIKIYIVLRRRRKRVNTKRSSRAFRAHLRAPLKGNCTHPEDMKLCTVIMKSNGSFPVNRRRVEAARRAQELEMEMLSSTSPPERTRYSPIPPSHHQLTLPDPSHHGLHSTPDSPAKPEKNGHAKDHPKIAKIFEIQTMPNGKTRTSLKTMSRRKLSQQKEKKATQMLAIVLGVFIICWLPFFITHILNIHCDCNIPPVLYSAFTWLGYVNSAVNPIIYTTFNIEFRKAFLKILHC
Sequence of 5-hydroxytryptamine receptor 6 (P50406 whole entry): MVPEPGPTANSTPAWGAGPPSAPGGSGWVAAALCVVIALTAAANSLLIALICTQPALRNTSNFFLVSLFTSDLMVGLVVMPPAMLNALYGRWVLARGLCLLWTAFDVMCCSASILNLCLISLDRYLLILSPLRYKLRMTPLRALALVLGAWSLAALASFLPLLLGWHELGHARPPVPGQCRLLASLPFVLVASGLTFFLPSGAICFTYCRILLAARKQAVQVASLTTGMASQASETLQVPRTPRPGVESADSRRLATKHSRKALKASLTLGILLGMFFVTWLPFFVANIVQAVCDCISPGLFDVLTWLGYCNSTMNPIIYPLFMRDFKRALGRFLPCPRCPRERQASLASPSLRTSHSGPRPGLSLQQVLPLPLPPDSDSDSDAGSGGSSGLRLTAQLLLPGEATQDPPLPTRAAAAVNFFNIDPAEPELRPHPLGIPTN
Sequence of 5-hydroxytryptamine receptor 1B (P28222 whole entry): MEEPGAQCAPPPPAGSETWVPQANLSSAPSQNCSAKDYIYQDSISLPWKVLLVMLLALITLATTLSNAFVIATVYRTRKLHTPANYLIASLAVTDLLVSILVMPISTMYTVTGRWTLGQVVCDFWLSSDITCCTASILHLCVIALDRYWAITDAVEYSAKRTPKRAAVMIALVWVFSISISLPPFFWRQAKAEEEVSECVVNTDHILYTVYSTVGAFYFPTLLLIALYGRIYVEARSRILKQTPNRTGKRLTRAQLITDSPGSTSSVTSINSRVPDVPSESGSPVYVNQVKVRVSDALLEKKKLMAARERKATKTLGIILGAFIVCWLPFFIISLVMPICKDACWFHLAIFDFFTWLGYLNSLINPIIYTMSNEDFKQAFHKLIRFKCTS
Sequence of 5-hydroxytryptamine receptor 2A (P28223 whole entry): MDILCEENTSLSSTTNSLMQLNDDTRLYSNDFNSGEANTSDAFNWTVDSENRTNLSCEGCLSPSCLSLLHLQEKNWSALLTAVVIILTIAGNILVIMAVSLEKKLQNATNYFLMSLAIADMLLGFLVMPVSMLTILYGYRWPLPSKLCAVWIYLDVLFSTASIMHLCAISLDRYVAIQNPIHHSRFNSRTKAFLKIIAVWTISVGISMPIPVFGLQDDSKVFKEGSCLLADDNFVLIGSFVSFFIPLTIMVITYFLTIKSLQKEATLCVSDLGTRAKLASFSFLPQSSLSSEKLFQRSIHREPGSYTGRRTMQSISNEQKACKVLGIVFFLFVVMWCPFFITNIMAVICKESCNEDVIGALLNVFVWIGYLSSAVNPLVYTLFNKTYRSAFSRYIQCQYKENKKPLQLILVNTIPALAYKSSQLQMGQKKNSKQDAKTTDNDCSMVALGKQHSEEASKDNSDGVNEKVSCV
Sequence of 5-hydroxytryptamine receptor 2B (P41595 whole entry): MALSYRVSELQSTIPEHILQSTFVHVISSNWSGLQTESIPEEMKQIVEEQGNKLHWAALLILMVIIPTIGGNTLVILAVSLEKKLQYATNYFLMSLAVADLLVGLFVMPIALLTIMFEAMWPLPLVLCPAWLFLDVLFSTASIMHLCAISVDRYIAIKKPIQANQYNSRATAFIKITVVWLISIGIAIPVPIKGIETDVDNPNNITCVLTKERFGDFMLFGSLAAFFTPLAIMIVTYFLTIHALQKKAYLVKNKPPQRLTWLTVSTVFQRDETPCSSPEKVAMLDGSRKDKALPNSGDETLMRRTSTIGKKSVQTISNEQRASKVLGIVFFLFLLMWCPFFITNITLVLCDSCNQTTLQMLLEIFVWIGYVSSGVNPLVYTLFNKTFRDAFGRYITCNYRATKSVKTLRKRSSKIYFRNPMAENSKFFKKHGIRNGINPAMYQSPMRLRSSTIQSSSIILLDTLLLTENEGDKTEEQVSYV
Sequence of D(3) dopamine receptor (Rattus norvegicus) (P19020 whole entry): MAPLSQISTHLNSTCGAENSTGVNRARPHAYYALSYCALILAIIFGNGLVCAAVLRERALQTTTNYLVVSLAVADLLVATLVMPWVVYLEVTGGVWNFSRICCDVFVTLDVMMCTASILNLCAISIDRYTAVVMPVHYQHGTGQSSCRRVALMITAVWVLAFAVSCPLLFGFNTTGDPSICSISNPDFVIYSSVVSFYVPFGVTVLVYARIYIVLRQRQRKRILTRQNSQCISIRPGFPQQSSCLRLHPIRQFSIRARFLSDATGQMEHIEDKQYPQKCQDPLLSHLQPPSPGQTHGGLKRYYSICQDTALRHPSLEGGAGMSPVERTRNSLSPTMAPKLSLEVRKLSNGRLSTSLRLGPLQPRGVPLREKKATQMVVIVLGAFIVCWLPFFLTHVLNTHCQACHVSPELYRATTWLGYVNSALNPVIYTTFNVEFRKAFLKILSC
Sequence of 5-hydroxytryptamine receptor 1D (P28221 whole entry): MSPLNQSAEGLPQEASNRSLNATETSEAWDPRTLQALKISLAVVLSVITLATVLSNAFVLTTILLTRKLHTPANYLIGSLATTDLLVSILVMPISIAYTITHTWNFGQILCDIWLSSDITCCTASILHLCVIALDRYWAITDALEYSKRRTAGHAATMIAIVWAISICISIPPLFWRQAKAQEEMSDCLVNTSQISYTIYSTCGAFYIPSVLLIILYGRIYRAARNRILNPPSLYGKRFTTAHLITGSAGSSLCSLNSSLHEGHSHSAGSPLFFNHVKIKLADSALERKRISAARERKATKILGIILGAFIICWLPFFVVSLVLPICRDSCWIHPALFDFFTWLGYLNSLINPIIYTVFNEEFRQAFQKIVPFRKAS

Compound	Ki (D(2) dopamine receptor) [nM]	Ki (D(3) dopamine receptor) [nM]	further results
COc1cccc(/C=C/C(=O)N[C@H]2CC[C@H](CCN3Cc4ccc(C#N)cc4C3)CC2)c1	1000	10	–
N#Cc1ccc2c(c1)CN(CC[C@H]1CC[C@H](NC(=O)c3ccnc4ccccc34)CC1)C2	2510	63.1	–
N#Cc1ccc2c(c1)CN(CC[C@H]1CC[C@H](NC(=O)c3cc4ccccc4[nH]3)CC1)C2	2510	25.1	–
N#Cc1ccc2c(c1)CN(CC[C@H]1CC[C@H](NC(=O)/C=C/c3ccc(F)cc3)CC1)C2	631	12.6	–
O=C(/C=C/c1ccc(F)cc1)N[C@H]1CC[C@H](CCN2Cc3ccc(C(F)(F)F)cc3C2)CC1	398	10	–

Continued, in another order:

Ki (D(2) dopamine receptor) [nM]	Ki (D(3) dopamine receptor) [nM]	Compound	further results
501	5.01	CS(=O)(=O)Oc1ccc2c(c1)CN(CC[C@H]1CC[C@H](NC(=O)/C=C/c3ccc(F)cc3)CC1)C2	Ki [1]: > 7940 nM; pKb [2]: 8.3; Ki [3]: 5010 nM; clearance [4]: 14 mL/min/kg; Ki [5]: > 5010 nM; bioavailability [6]: 77%; Ki [7]: > 5010 nM; Ki [8]: > 1000 nM; Ki [9]: > 10000 nM; Ki [10]: 3160 nM; half-life [11]: 5.2 h; Ki [12]: 1260 nM; Ki [13]: > 3980 nM
200	7.94	COc1ccc2c(c1)CN(CC[C@H]1CC[C@H](NC(=O)/C=C/c3ccc(F)cc3)CC1)C2	–
100	3.16	O=C(/C=C/c1ccc(F)cc1)N[C@H]1CC[C@H](CCN2Cc3ccc(Br)cc3C2)CC1	–
